Molecular target: T1, Recombinant BTK (Homo sapiens, UniProt Q06187)
T1 construct: purchased Life Technologies (Carlsbad, CA) PV3587
Experiment: Preparation of DB-BTK / QB-BTK reference standards: covalent reaction of recombinant BTK with excess drug or quencher
Format: biochemical
Details: recombinant BTK 5.9 μM, excess amount of drug, RT for 1 h
Experimental: Recombinant BTK (5.9 μM, 200 μL) was combined with 400 μL of PBS, and then spiked with 15 μL of 1.0 mg/mL drug solution (compound shown in FIG. 1A) in acetonitrile (2701 μM drug, 15 μL). The solution was then incubated at RT for 1 h, resulting in a DB-BTK concentration of 1919 nM.
Recombinant BTK (5.9 μM, 200 μL) was combined with 400 μL of PBS, and then spiked with 15 μL of 1.0 mg/mL quencher solution (compound shown in FIG. 1B) in acetonitrile (2806 μM quencher, 15 μL). The solution was incubated at RT for 1 h, resulting in a QB-BTK concentration of 1919 nM.

T1 sequence (Q06187 whole entry): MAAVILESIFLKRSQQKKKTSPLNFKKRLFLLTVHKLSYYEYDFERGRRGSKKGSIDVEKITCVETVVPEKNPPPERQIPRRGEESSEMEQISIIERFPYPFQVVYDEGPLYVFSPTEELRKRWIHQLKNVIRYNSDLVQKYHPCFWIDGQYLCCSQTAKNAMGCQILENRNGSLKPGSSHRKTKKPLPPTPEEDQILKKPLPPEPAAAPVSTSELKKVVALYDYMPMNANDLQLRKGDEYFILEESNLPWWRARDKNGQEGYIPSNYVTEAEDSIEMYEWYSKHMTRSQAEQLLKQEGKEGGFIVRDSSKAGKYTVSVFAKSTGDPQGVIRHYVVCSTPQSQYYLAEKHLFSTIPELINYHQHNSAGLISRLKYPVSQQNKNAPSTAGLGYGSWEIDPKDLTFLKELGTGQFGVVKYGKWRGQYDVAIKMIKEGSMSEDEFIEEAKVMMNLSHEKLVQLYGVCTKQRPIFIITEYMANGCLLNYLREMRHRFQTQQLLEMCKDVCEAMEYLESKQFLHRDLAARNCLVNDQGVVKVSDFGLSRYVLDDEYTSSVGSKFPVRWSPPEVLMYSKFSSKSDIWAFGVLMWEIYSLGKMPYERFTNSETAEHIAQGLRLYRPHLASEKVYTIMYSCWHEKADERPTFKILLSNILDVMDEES

conversion of free BTK to DB-BTK: ~100%
SMILES: CC#CC(=O)N[C@H]1CCCN(c2c(F)cc(C(N)=O)c3[nH]c(C)c(C)c23)C1 [compound shown in FIG. 1A]

Reference: patent US12085564B2, “Assay to determine in vivo receptor occupancy” (BRISTOL-MYERS SQUIBB COMPANY, priority 2018, dated 2024)
